# In patent US8778927B2, “Smoothened antagonism for the treatment of hedgehog pathway-related disorders” (Novartis AG, priority 2008, dated 2014):
# Tests used:
# PI3K pathway genes = assay: Affymetrix mRNA profiling of tumors, PI3K pathway genes; format: in vivo, mouse
# Protocol: (§1) In order to characterize changes in gene expression in sensitive tumors compared to resistant tumors (both of which terms are defined herein), RNA was isolated from sensitive tumors treated with vehicle or Compound 1 for 4 (single dose), 16 (single dose) and 48 hours (three doses) as well as from resistant tumors (that initially had regressed in the presence of Compound 1 (day 13) but then regrew in the presence of drug as described above). Three tumors were analyzed per treatment group: The sensitive tumor group comprises tumors treated with 20 mg/kg of Compound 1 for 4 hours; 16 hours; and 48 hours. The resistant tumor group comprises tumors treated with 10 mg/kg bid and 80 mg/kg bid of Compound 1 for 26 days. mRNA expression in tumor samples was analyzed by Affymetrix profiling. The expression data were analyzed using the GeneGo pathway program, which groups data according to signal transduction pathways.
# [1] = test system: Cholesterol biosynthesis pathway genes; assay: Affymetrix mRNA profiling of tumors, cholesterol biosynthesis genes; format: in vivo, mouse; settings: sensitive and resistant tumors
# Protocol: as §1
# [2] = test system: Ptch+/−Hic+/− medulloblastoma allograft; assay: Ptch+/−Hic+/− medulloblastoma allograft model, continuous dosing; format: in vivo, mouse; settings: day 47
# Excerpt: (§2) Mouse medulloblastoma cells (1.0−5.0×10^6), dissociated directly from tumor fragments originally derived from spontaneously arising medulloblastomas in Ptch+/−p53−/−, Ptch+/−Hic+/− or Ptch+/− mice, were inoculated subcutaneously into the right flank of Harlan nu/nu mice. Treatment was initiated approximately 7-10 days post implantation. Animals were randomized into treatment groups with similar mean tumor volumes that ranged from approximately 250-300 mm3. Tumor volumes (mm3) and body weights (g) were recorded two or three times per week from all groups for analysis. Dose was body weight adjusted at time of dosing. Comparisons between treatment groups was performed using a non-parametric Kruskal-Wallis/Wilcoxon Rank Sum Test.
# (§3) Tumors were calipered in two dimensions, and the volumes were calculated using the formula: (length×width2)/2, where length is the longer of the two measurements and width is the shorter one. Percent treatment/control (% T/C) values were calculated using the following formula: % T/C=100×ΔTf−i/ΔCf−i if ΔTf−i>0, % T/T0=100×ΔTf−i/T0 if ΔTf−i<0 (regression). A partial responder (PR) was defined as an animal whose tumor was less than 50% of the initial tumor volume by the end of the study. An animal with no palpable tumor by the end of study is defined as a complete responder (CR).
# Treatments started on day 7 post implantation (5 million cells/animal). Compound 1 was administered po at 5 mg/kg bid, 10 mg/kg bid, 20 mg/kg qd, 20 mg/kg bid, 40 mg/kg bid and 80 mg/kg bid for the length of study. Compound 2 was administered at 100 mg/kg bid for the length of study. Vehicle control of Compound 1 was 0.5% methylcellulose 0.5% Tween 80 in water. The initial group size consisted of 8 animals. The vehicle group was taken down 10 days after treatment (tumors greater than 10% of mouse body weight).
# Sustained regressions listed in the Table 1 represent number of complete responses still present at the end of study on day 47.
# Two additional Smo inhibitors, Compound 3 and Compound 4 were evaluated in follow-up studies in the Ptch+/−Hic+/− model upon continous dosing.
# [3] = test system: sensitive medulloblastoma tumor cells; assay: ex-vivo medulloblastoma proliferation assay (3H thymidine, 48 h), sensitive tumor cells; format: cell-based; settings: Mus musculus
# Protocol: (§4) The effect of statins (e.g., simvastatin, flustatin) on the proliferation of medulloblastoma cells derived from sensitive and resistant Ptch+/− cells was evaluated by using an “ex-vivo medulloblastoma proliferation assay.” Using Ptch+/−p53−/−, Ptch+/−Hic+/− or Ptch+/− medulloblastoma tumors freshly harvested from allografted nude mice, we have developed a short-term 48 h proliferation assay that enables us to assess the in vitro potency of Smo inhibitors. The read-out for proliferation uses incorporation of 3H thymidine. The assay reflects the in vivo sensitivity of tumor cells to Compound 1.
# (§5) The effect of PI3K inhibitors (e.g., compounds such as Compound A) on the proliferation of medulloblastoma cells derived from sensitive and resistant medulloblastoma cells was evaluated by using an “ex-vivo medulloblastoma proliferation assay,” as described above.
# [4] = test system: Ptch+/−Hic+/− medulloblastoma allograft; assay: combination of Smo inhibitor and PI3K inhibitor in Ptch+/−Hic+/− medulloblastoma allograft model; format: in vivo, mouse
# Excerpt: Mouse medulloblastoma cells (1.0-5.0×10^6), dissociated directly from tumor fragments originally derived from spontaneously arising medulloblastomas in Ptch+/-p53-/-, Ptch+/-Hic+/- or Ptch+/- mice, were inoculated subcutaneously into the right flank of Harlan nu/nu mice. Treatment was initiated approximately 7-10 days post implantation. Animals were randomized into treatment groups with similar mean tumor volumes that ranged from approximately 250-300 mm3. Tumor volumes (mm3) and body weights (g) were recorded two or three times per week from all groups for analysis. Dose was body weight adjusted at time of dosing. Comparisons between treatment groups was performed using a non-parametric Kruskal-Wallis/Wilcoxon Rank Sum Test. Tumors were calipered in two dimensions, and the volumes were calculated using the formula: (length×width2)/2, where length is the longer of the two measurements and width is the shorter one. […] A partial responder (PR) was defined as an animal whose tumor was less than 50% of the initial tumor volume by the end of the study. An animal with no palpable tumor by the end of study is defined as a complete responder (CR). Next, a combination of Compound 1 and Compound A was explored in the Ptch+/-Hic+/- medulloblastoma allograft model. […] Animals treated with vehicle control and with compound A had to be sacrificed around day 20 and 25, respectively, because their tumor volume reached 1500 mm3. […] Similar results were obtained for animals treated with Compound 1 alone for the first 10 days, followed by single agent treatment with Compound A (data not shown). […] Next, a combination of Compound 1 and Compound B was explored in the Ptch+/-Hic+/- medulloblastoma allograft model. […] Animals treated with vehicle control and with compound B reached the endpoint around day 12 to 15, respectively, because their tumor volume reached 700 mm3.
# [5] = test system: Hedgehog signaling pathway genes; assay: Affymetrix mRNA profiling of tumors, Hedgehog pathway genes; format: in vivo, mouse
# Protocol: as §1
# [6] = test system: resistant medulloblastoma tumor cells; assay: ex-vivo medulloblastoma proliferation assay (3H thymidine, 48 h), resistant tumor cells; format: cell-based, mouse; settings: Mus musculus
# Protocol: as §4, §5
# [7] = test system: Ptch+/− medulloblastoma allograft; assay: Ptch+/− medulloblastoma allograft model, continuous dosing; format: in vivo, mouse; settings: day 48
# Excerpt: as §2, §3
# Treatments started on day 7 post implantation (5 million cells/animal). Compound 1 was administered po at 10 mg/kg qd, 20 mg/kg qd, 40 mg/kg qd, 80 mg/kg qd and 160 mg/kg qd for the length of study. Compound 2 was administered at 100 mg/kg bid for the length of study. Vehicle control of Compound 1 was 0.5% methylcellulose 0.5% Tween 80 in water. The initial group size consisted of 8 animals. The vehicle group was taken down 7 days after treatment (tumors greater than 10% of mouse body weight). Similar resistance was seen to that observed with the Ptc+/−Hic+/− model, with a subset of the complete responders growing back and others showing complete regression (Table 2). Sustained regression listed in Table 2 represent number of complete regressions still present at the end of study on day 48.
smiles,measurement,setting,value
"Cc1c(C(=O)Nc2ccc(N3C[C@@H](C)O[C@@H](C)C3)nc2)cccc1-c1ccc(OC(F)(F)F)cc1 [Compound 1, 2-Methyl-4′-trifluoromethoxy-biphenyl-3-carboxylic acid [6-(cis-2,6-dimethyl-morpholin-4-yl)-pyridin-3-yl]-amide]",PI3K pathway activity (gene expression),PI3K pathway genes; resistant tumors compared to sensitive tumors,upregulation of PI3K pathway activity was observed in resistant tumors
same,expression of genes indicative of PI3K pathway activity,"PI3K pathway genes; sensitive tumors, 4, 16 and 48 h",No changes in gene expression were detected
same,expression of genes of the Cholesterol biosynthesis pathway,[1],A similar expression pattern was observed
same,sustained regressions (complete responses still present at end of study),[2]; 5 mg/kg bid po,0/8
same,sustained regressions (complete responses still present at end of study),[2]; 10 mg/kg bid po,1/8
same,sustained regressions (complete responses still present at end of study),[2]; 20 mg/kg bid po,7/8
same,sustained regressions (complete responses still present at end of study),[2]; 20 mg/kg qd po,0/8
same,sustained regressions (complete responses still present at end of study),[2]; 40 mg/kg bid po,3/8
same,sustained regressions (complete responses still present at end of study),[2]; 80 mg/kg bid po,6/8
same,IC50,"[3]; Sensitive tumor, Table 3",3 nM
same,IC50,"[3]; ptch+/− Hic+/−, sensitive, Table 4",2 nM
same,IC50,"[3]; sensitive cells, summary of Table 4",2 to 4 nM
same,IC50,"[3]; sensitive tumor cells, text b482",4 nM
same,effect on tumor growth,"[4]; 40 mg/kg qd, FIG. 6A",initially induced regression but tumors started to regrow
same,time to endpoint (tumor volume >1500 mm3),"[4]; 40 mg/kg qd, FIG. 6B",significantly prolonged
same,effect on tumor growth,"[4]; 80 mg/kg qd, FIG. 7A",initially induced regression but tumors started to regrow
same,time to endpoint (tumor volume >700 mm3),"[4]; 80 mg/kg qd, FIG. 7B",significantly prolonged
same,expression of Hedgehog pathway genes,"[5]; resistant tumors, 10 and 80 mg/kg bid, 26 days",no longer sufficiently inhibited the expression of Hedgehog pathway genes
same,expression of genes indicative of Hedgehog signaling pathway activity,"[5]; sensitive tumors, 20 mg/kg, 4 h, 16 h, 48 h",suppressed in sensitive tumors in a time-dependent manner
same,IC50,"[6]; Resistant tumor, Table 3",> 20000 nM
same,IC50,"[6]; ptch+/− Hic+/−, Resistant, Table 4",> 20000 nM
same,IC50,"[6]; resistant tumors, summary of Table 4",> 20000 nM
same,IC50,"[6]; resistant tumors, text b482",> 20000 nM
same,sustained regressions (complete regressions still present at end of study),[7]; 10 mg/kg qd po,0/8
same,sustained regressions (complete regressions still present at end of study),[7]; 20 mg/kg qd po,1/8
same,sustained regressions (complete regressions still present at end of study),[7]; 40 mg/kg qd po,1/8
same,sustained regressions (complete regressions still present at end of study),[7]; 80 mg/kg qd po,4/8
same,sustained regressions (complete regressions still present at end of study),[7]; 160 mg/kg qd po,5/8
